Data published in US7807176B2, “Polypeptide promoting vascular endothelial cell growth” (Genomidea, Inc., priority 2004, dated 2010).
“Also recorded” adds a separate entry of the source.

Columns and labels:
[1] = test system: insulin-like growth factor-1 (IGF-1) mRNA; test: Growth factor mRNA expression level: IGF-1; format: cell-based
[2] = test system: tube formation; test: Tube formation, Kurabo Angiogenesis kit with CD31 staining and image quantification; format: cell-based, human; conditions: for tube Area % Increase / tube Length % Increase: Table 2; for Area (% increase): Example 5, Table 4; for Length (% increase): Example 5, Table 5
Experimental: Using a Kurabo Angiogenesis kit (KZ-1000, Kurabo Industries Ltd.), tube formation was examined. A blank, vascular endothelial growth factor-A protein (VEGF-A), pVEGF plasmid (plasmid containing a gene encoding vascular endothelial growth factor), and pSPORT1 (a plasmid not containing a gene encoding vascular endothelial growth factor) were used as controls. […]
Culture was carried out at 37° C. in a 5% CO2 incubator. The medium was exchanged on the 4th, 7th and 9th days of culture with a fresh medium containing the same additives.
CD31 (PECAM-1) staining primary antibody (mouse anti-human CD31 antibody) was diluted 4,000-fold with a blocking solution (Dulbecco's phosphate buffer solution (PBS(−)) containing 1% BSA). 0.5 ml of this primary antibody solution was added to each well and incubated for 60 minutes at 37° C. After incubation was finished, each well was washed 3 times with 1 ml blocking solution.
Then, 0.5 ml of a secondary antibody (goat anti-mouse IgG/alkali phosphatase conjugate) solution, diluted 500-fold with the blocking solution, was added to each well and incubated for 60 minutes at 37° C., and each well was washed 3 times with 1 ml distilled water. Separately, 2 tablets of BCIP/NBT were dissolved in 20 ml distilled water and filtered through a filter with a pore size of 0.2 μm, to prepare a substrate solution. 0.5 ml of the prepared BCIP/NBT substrate solution was added to each well and incubated at 37° C. until the tube turned deep violet (usually in 5 to 10 minutes). After incubation was finished, each well was washed 3 times with 1 ml distilled water, followed by removing the washing solution using suction, and the plate was left to air-dry. After drying, each well was observed under a microscope.
Each well was observed under a 40× magnification microscope and a photograph of each well was taken. An enlarged photograph with the scale of 1 mm magnified 40-fold was taken (FIG. 5).
Each of the resulting images was quantified with angiogenesis quantification software (KSW-5000U, Kurabo Industries Ltd.) according to the following method. The area (left in FIG. 6) and length (right in FIG. 6) of tubes formed in each visual field were measured on the scale by computer analysis with various indicators. […]

[3] = test system: Human endothelial cells; test: Test Example 2: growth of endothelial cells; format: cell-based; conditions: 1, 10 and 100 ng/ml; Test Example 2, present tense
Experimental: Human endothelial cells are sensitized with the HVJ envelope vector and then cultured in the presence or absence of human F2 peptide added externally (1, 10 and 100 ng/ml), to determine the increase (%) of the number of cells. […] Separately, endothelial cells sensitized with the HVJ envelope vector (concentration: 10 μg/ml) are cultured and an increase in the number of cells is measured to determine percentage increase (%). […] Further, the endothelial cells sensitized with the HVJ envelope vector are cultured in the presence or absence of rabbit anti-human F peptide antibody, and then an increase in the number of cells is measured to determine percentage increase (%).

For “MLSLIFLHRLKSMRKRLDRKLRFWHRKNYP (listed as Homo sapiens) [F2 peptide]”, the “IGF-1 mRNA Increased Amount [times]” value ([1]; 24 hrs) was 46.2 times, the “IGF-1 mRNA Increased Amount [times]” value ([1]; 48 hrs) was 97.9 times and the “IGF-1 mRNA Increased Amount [times]” value ([1]; 72 hrs) was 243.8 times. The “effect on mRNA level of IGF-1 (in words)” value ([1]; over 72 hours, FIG. 16) was “up-regulated the mRNA level of insulin-like growth factor-1 (IGF-1) potently and specifically in a time-dependent manner”, the “tube Area % Increase” value ([2]; 100 ng/ml) was 61% and the “tube Length % Increase” value ([2]; 100 ng/ml) was 53%. For the same sequence, the “Area (% increase)” value ([2]; 1 μg/ml) was 41.8%, the “Length (% increase)” value ([2]; 1 μg/ml) was 38.5% and the “tube Area % Increase” value ([2]; 1 μg/ml) was 55%. The “tube Length % Increase” value ([2]; 1 μg/ml) was 50%, the “Area (% increase)” value ([2]; 10 μg/ml) was 131.4% and the “Length (% increase)” value ([2]; 10 μg/ml) was 115.5%. The “angiogenesis activity compared with LL-37 peptide (in words)” value ([2]; 10 μg/ml, FIG. 15) was “higher angiogenesis activity at a dose of 10 μg/ml than that of LL-37 peptide”, the “tube Area % Increase” value ([2]; 10 μg/ml) was 132% and the “tube Length % Increase” value ([2]; 10 μg/ml) was 116%. The “in vitro angiogenesis activity (in words)” value ([2]; F2 0.1, 1, 10 μg/ml versus VEGF 50 ng/ml and control peptide) was “larger blood vessels were formed; also recorded: stronger angiogenesis enhancing activity than that of VEGF” and the “growth of endothelial cells with externally added peptide” value [3] was “growth of endothelial cells is promoted”.
